As a reminder, the IC50 is the concentration that inhibits the measured activity by half.

Counter-ions that a name gives are not always drawn. Like-named read-outs stand apart in the source and are kept apart here.

For 28 molecules, IC50 results are on record in patent US20130116251A1, “Novel HSP90 Inhibitor” (Nippon Kayaku Kabushiki Kaisha, priority 2005, published 2013).

In one assay the target is rHSP90. As to the kind of experiment: HSP90 binding assay (BIACORE SPR; inhibition of binding between rHSP90 and fixed herbimycin A). Particulars: concentration inhibiting binding between rHSP90 (50 μg/mL) and fixed herbimycin A by 50%, BIACORE-X SPR; read-out: HSP90 inhibitory activity IC50. The source says: The HSP90 binding assay system is a system for detecting the change of mass as SPR signal caused by the binding between herbimycin A fixed on a sensor chip and rHSP90 by BIACORE-X, in which 17-(6-amino hexylamino)herbimycin A is fixed through a carboxyl group on the surface of the sensor chip (CM5, BIACORE) on which carboxymethyldextran has been introduced. The method was according to the protocol of BIACORE. In addition, 17-(6-aminohexylamino)herbimycin A was synthesizes as described below.
rHSP90 (Stressgen Biotechnologies Corp., Victoria, BC Canada) at 50 μg/mL was exposed for 10 seconds to the surface of the sensor chip on which herbimycin A was fixed and the SPR signal (numerical value of interaction) was detected.
After mixing rHSP90 protein (5×10^−7M (50 μg/mL)) with the triazole derivative of the present invention, the mixture was exposed for 10 seconds to the surface of the sensor chip on which herbimycin A was fixed, and the SPR signal was measured by BIACORE-X.
Next, using following formula (1), the inhibitory activity (binding inhibition rate (%)) of the compound of the present invention to the binding between rHSP90 and fixed herbimycin A was obtained.
binding inhibition rate(%)=((b−s)/b)×100 Formula (1)
wherein b is the SPR signal when the compound of the present invention is not added to the sample: s is the SPR signal when the compound of the present invention is added to the sample.
(In general: In SPR one partner is held on a chip, and binding of the other changes the refractive index at the surface.)

Assay [1] has as its system Human breast cancer cells (MCF7). As to the kind of experiment: Antiproliferative activity on MCF7 cells (methylene blue method). In kind it is cell-based. The note with it: read-out: Antiproliferative activity IC50. As to the method: Human breast cancer cells (MCF7) were treated with samples of various concentrations of known HSP90 inhibitors (that is, geldanamycin, herbimycin, radicicol and PU3) and the compounds of the present invention for 72 hours to confirm the effect of the triazole derivatives of the present invention on the cell growth. The cell ratio after the drug treatment was evaluated by measuring 660 nm absorbance by a microplate reader (BioRad) after staining the cells with the methylene blue method.
Cells were distributed to wells of 96 well plates at 2000 cells per well and treated with drugs 24 hours later. Further, the medium was removed 72 hours later and the cells were fixed by adding 50 μl of methanol and standing at room temperature for 2 minutes. After removing methanol, 100 μl of a staining solution was added and stained for 30 minutes. After washing 3 times with 200 μl of distilled water, 3% HCl solution was added, and the 660 nm absorbance of methylene blue was measured by a microplate reader (BioRad).
Next, the antiproliferative activity rate (%) was obtained by the formula (2) below.
Antiproliferative activity rate(%)=((B−A)/B)×100 Formula (2)
wherein B is 660 nm absorbance of the sample when the compound of the present invention is not added, and A is 660 nm absorbance of the sample when the compound of the present invention is added.
From the concentration of the triazole derivative of the present invention and the antiproliferative activity rate, the concentration was obtained using the above formula, at which the cell growth was suppressed by 50% by comparing with the control, and termed an IC50 value.
The antiproliferative activity rate (%) was obtained for SH-b04, SH-b05 and SH-b06 described above by a similar manner to that of the triazole derivatives of the present invention.

Setting [2] is: Homo sapiens, MCF7, 72 h, MCF7 cells, 72 hours treatment, 660 nm absorbance after methylene blue staining.
Where [3] appears, read: MCF7 cells, 72 hours treatment, 660 nm absorbance after methylene blue staining.

Turning to `CSc1nnc(-c2cc(C(C)C)c(O)cc2O)n1-c1ccc(CN2CCOCC2)cc1` [SMe-a02-TF, 4-isopropyl-6-{5-methylsulfanyl-4-[4-(morpholin-4-ylmethyl)-phenyl]-4H-[1,2,4]triazol-3-yl}-benzene-1,3-diol trifluoroacetate], the IC50 at rHSP90 came to 470 nM; in assay [1] (setting [2]), 530 nM.
On the same counts, the results for `CC(C)c1cc(-c2n[nH]c(=S)n2-c2cccnc2)c(O)cc1O` [SH-a16] are 140 nM and 240 nM.
Take `COc1cccc(-n2c(-c3cc(C(C)C)c(O)cc3O)n[nH]c2=O)c1` [OH-a09, 5-(2,4-dihydroxy-5-isopropyl-phenyl)-4-(3-methoxy-phenyl)-2,4-dihydro-[1,2,4]triazol-3-one]: the 50% inhibitory concentration (IC50) was 160 nM at rHSP90 and 6.7 nM in assay [1] (setting [2]).
`CC(C)c1cc(-c2n[nH]c(=O)n2N2CCCCC2)c(O)cc1O` [OH-a24•TFA, 5-(2,4-dihydroxy-5-isopropyl-phenyl)-4-piperidin-1-yl-2,4-dihydro-[1,2,4]triazol-3-one]: the IC50 at rHSP90 amounted to 1100 nM; in assay [1] (setting [2]), 790 nM.
On to `CC(C)c1cc(-c2n[nH]c(=S)n2C2CCN(Cc3ccccc3)CC2)c(O)cc1O` [SH-a25•TFA], for which the IC50 on rHSP90 is 1000 nM; in assay [1] (setting [2]) it was 890 nM.
`CC(C)c1cc(-c2nnc(S(C)(=O)=O)n2CCCN2CCOCC2)c(O)cc1O` [SFN-a27, 4-isopropyl-6-[5-methanesulfonyl-4-[3-(molpholin-4-yl)-propyl]-4H-[1,2,4]triazol-3-yl]-benzene-1,3-diol]: the IC50 is 1600 nM on rHSP90 and greater than 20000 nM in assay [1] (setting [2]).
On the same counts, the results for `CC(C)Cn1c(-c2cc(C(C)C)c(O)cc2O)n[nH]c1=S` [SH-a22, 5-(2,4-dihydroxy-5-isopropyl-phenyl)-4-isobutyl-2,4-dihydro-[1,2,4]triazol-3-thione] are 270 nM and 450 nM.
Take `COc1ccc(-n2c(-c3cc(C(C)C)c(O)cc3O)nnc2S(=O)(=O)Cc2ccc[n+]([O-])c2)cc1` [SFN5-a08, 4-isopropyl-6-[4-(4-methoxy-phenyl)-5-(1-oxy-pyridin-3-ylmethanesulfonyl)-4H-[1,2,4]triazol-3-yl]-benzene-1,3-diol]: the IC50 on rHSP90 worked out at 430 nM; in assay [1] (setting [2]), 3900 nM.
With `CO[C@H]1[C@@H](OC)C[C@H](C)[C@@H](OC)C2=CC(=O)C=C(NC(=O)/C(C)=C/C=C\[C@H](OC)[C@@H](OC(N)=O)/C(C)=C/[C@@H]1C)C2=O` [herbimycin, reference compound], the IC50 in assay [1] (Homo sapiens, MCF7, 72 h) was 160 nM.
Take `COc1ccc(-n2c(-c3cc(C(C)C)c(O)cc3O)nnc2[S+](C)[O-])cc1` (stereo not drawn) [SFX-a08, 4-isopropyl-6-[5-methylsulfinyl-4-(4-methoxy-phenyl)-4H-[1,2,4]triazol-3-yl]-benzene-1,3-diol]: the figures for the IC50 (at rHSP90; in assay [1] (setting [2])) were 120 nM and 360 nM, respectively.
On the same counts, the results for `CC(C)c1cc(-c2n[nH]c(=O)n2-c2ccc(C(=O)O)cc2)c(O)cc1O` [OH-a12, 4-[3-(2,4-dihydroxy-5-isopropylphenyl)-5-oxo-1,5-dihydro-[1,2,4]triazol-4-yl]-benzoic acid] are 190 nM and greater than 20000 nM.
On the same counts, the results for `CC(C)c1cc(-c2nnc(S(=O)(=O)CCCN(C)C)n2C(C)C)c(O)cc1O` [SFN2-a21•TFA] are 1000 nM and 5200 nM.
For the molecule `COc1ccc(-n2c(SCCN(C)C)nnc2-c2cc(C(C)C)c(O)cc2O)cc1` [SR2-a08, 4-[5-(3-dimethylamino-ethylsulfanyl)-4-(4-methoxy-phenyl)-4H-[1,2,4]triazol-3-yl]-6-isopropyl-benzene-1,3-diol], the figures for the IC50 (on rHSP90; in assay [1] (setting [2])) were 740 nM and 1800 nM, respectively.
With `COC1=C2C[C@@H](C)C[C@H](OC)[C@H](O)[C@@H](C)/C=C(\C)[C@H](OC(N)=O)[C@@H](OC)/C=C\C=C(/C)C(=O)NC(=CC1=O)C2=O` [geldanamycin, reference compound], the 50% inhibitory concentration (IC50) in assay [1] (setting [2]) was determined as 12 nM.
For `Cc1ccccc1-n1c(S)nnc1-c1ccc(O)cc1O` [SH-b05, reference compound], the IC50 is 200 nM at rHSP90 and 9000 nM in assay [1] (setting [2]).
The like results for `CC(C)c1cc(-c2n[nH]c(=S)n2-c2ccccc2)c(O)cc1O` [SH-a15] were, in that order, 250 nM and 40 nM.
For `COc1ccc(-n2c(-c3cc(C(C)C)c(O)cc3O)nnc2S(=O)(=O)Cc2cccnc2)cc1` [SFN4-a08, 4-isopropyl-6-[4-(4-methoxy-phenyl)-5-(pyridin-3-ylmethanesulfonyl)-4H-[1,2,4]triazol-3-yl]-benzene-1,3-diol], the IC50 on rHSP90 was found to be 230 nM; in assay [1] (setting [2]) it was 9900 nM.
As to `CC(C)c1cc(-c2n[nH]c(=O)n2-c2ccc(C(=O)N3CCOCC3)cc2)c(O)cc1O` [OH-a14], the figures for the IC50 (on rHSP90; in assay [1] (setting [2])) were 190 nM and 720 nM, respectively.
Turning to `CC(C)c1cc(-c2n[nH]c(=O)n2C(CO)CO)c(O)cc1O` [OH-a33, 5-(2,4-dihydroxy-5-isopropyl-phenyl)-4-(2-hydroxy-1-hydroxymethyl-ethyl)-2,4-dihydro-[1,2,4]triazol-3-one], the figures for the IC50 (at rHSP90; in assay [1] (setting [2])) were 370 nM and 3300 nM, respectively.
The like results for `CC(C)c1cc(-c2n[nH]c(=S)n2-c2ccc(N3CCOCC3)cc2)c(O)cc1O` [SH-a01-TF, 4-isopropyl-6-{5-mercapto-4-[4-(morpholin-4-yl)-phenyl]-4H-[1,2,4]triazol-3-yl}-benzene-1,3-diol] were, in that order, 190 nM and 20 nM.
Regarding `CC(C)c1cc(-c2n[nH]c(=S)n2-c2ccc(N3CCOCC3)cc2)c(O)cc1O` [SH-a01, 4-isopropyl-6-{5-mercapto-4-[4-(morpholin-4-yl)-phenyl]-4H-[1,2,4]triazol-3-yl}-benzene-1,3-diol], the concentration for half-maximal inhibition (IC50) was found to be 140 nM on rHSP90 and 14 nM in assay [1] (setting [3]).
For `C#CCc1cc(-c2n[nH]c(=O)n2-c2ccc(CN3CCOCC3)cc2)c(O)cc1O` [OH-e02, 5-[2,4-dihydroxy-5-(prop-2-ynyl)-phenyl]-4-[4-(morpholin-4-ylmethyl)-phenyl]-2,4-dihydro-[1,2,4]triazol-3-one], the IC50 amounted to 150 nM at rHSP90 and 240 nM in assay [1] (setting [2]).
`C[C@@H]1C[C@H]2O[C@@H]2/C=C\C=C\C(=O)Cc2c(Cl)c(O)cc(O)c2C(=O)O1` [radicicol, reference compound]: the IC50 in assay [1] (setting [2]) amounted to 19 nM.
`COc1ccc(-n2c(SC)nnc2-c2cc(C(C)C)c(O)cc2O)cc1` [SMe-a08, 4-isopropyl-6-[4-(4-methoxy-phenyl)-5-methylsulfanyl-4H-[1,2,4]triazol-3-yl]-benzene-1,3-diol]: the IC50 in assay [1] (setting [2]) stood at 3100 nM.
In the case of `CCCCn1c(Cc2cc(OC)c(OC)c(OC)c2)nc2c(N)ncnc21` [PU3, reference compound], the IC50 in assay [1] (setting [3]) came to 91000 nM.
`COc1ccc(-n2c(-c3cc(C(C)C)c(O)cc3O)n[nH]c2=O)cc1OC` [OH-a10, 5-(2,4-dihydroxy-5-isopropyl-phenyl)-4-(3,4-dimethoxy-phenyl)-2,4-dihydro-[1,2,4]triazol-3-one]: the IC50 in assay [1] (setting [2]) turned out to be 14 nM.
For the molecule `Oc1cc(O)c(-c2n[nH]c(=S)n2-c2ccc(N3CCOCC3)cc2)cc1Br` [SH-d01, 4-bromo-6-{5-mercapto-4-[4-(morpholin-4-yl)-phenyl]-4H-[1,2,4]triazol-3-yl}-benzene-1,3-diol], the IC50 in assay [1] (setting [2]) is 580 nM.
Same read-out and setting: the value for `CC(C)c1cc(-c2nnc(S(C)(=O)=O)n2CCN2CCOCC2)c(O)cc1O` [SFN-a26, 4-isopropyl-6-[5-methanesulfonyl-4-(2-molpholin-4-ylethyl)-4H-[1,2,4]triazol-3-yl]-benzene-1,3-diol] was greater than 20000 nM.
